Where “and” joins values, the source holds several entries; their conditions need not be identical. Equal values may be shown once. Calls of active or inactive are those of the source.
How the values were obtained:
[1] = HEK293T cytotoxicity, dose response, cytotoxicity control for miR-122 modulator project, cell-based, activator set, cherry-pick (AID 720690); format: functional;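 note: HEK293T human cells scored for general mammalian cytotoxicity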
[2] = HEK293T cytotoxicity, dose response, cytotoxicity control for miR-122 modulator project, cell-based, inhibitor set, cherry-pick, set 2 (AID 720697); format: functional
[3] = A549 cell cytotoxicity, dose response, CellTiter-Glo luminescence, dry powder, set 17 (AID 1117284); format: functional, cell-based
[4] = A549 cell cytotoxicity, dose response, cytotoxicity control, 24 h, CellTiter-Glo luminescence, cherry-picks (AID 1053115); format: functional, cell-based; conditions: A549, 24 h
Paired box protein Pax-8 = Paired box protein Pax-8 (Homo sapiens, UniProt Q06710); experiment: inhibitors of PAX8-driven TPO luciferase reporter, dose response, RMG-I cells, cherry-pick (AID 687027); format: functional, cell-based;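 note: luciferase reporter driven by Pax8 target thyroperoxidase promoter measured by SteadyGlo luminescence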
Paired box protein Pax-8, sequence (Q06710 whole entry): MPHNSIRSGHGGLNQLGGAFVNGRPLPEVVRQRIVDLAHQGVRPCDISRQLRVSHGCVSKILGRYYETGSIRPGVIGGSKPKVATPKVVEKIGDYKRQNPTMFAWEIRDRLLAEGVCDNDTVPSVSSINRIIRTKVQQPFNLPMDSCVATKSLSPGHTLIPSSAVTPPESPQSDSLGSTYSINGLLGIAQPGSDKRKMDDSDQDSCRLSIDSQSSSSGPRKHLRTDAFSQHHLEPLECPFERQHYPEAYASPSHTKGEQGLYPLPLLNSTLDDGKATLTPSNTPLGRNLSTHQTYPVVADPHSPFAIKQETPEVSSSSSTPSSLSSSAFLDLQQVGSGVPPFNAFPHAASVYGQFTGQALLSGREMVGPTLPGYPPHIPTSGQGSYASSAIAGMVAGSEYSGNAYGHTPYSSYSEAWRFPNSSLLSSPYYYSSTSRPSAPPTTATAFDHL

[5] = miR-122 activators in hepatoma reporter cells, dose response, cell-based, Huh7 psiCHECK-miR122, Renilla luciferase, cherry-picked (AID 651956); format: functional;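 note: huh7 hepatoma cells stably carrying a psiCHECK-2 miR-122 sensor plasmid; renilla luciferase signal reporting endogenous miR-122 activity after 48 h compound exposure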
[6] = cytotoxicity in OVCAR8 ovarian cancer cells, dose response, PAX8 project, cell-based, plate reader, dry powder samples (AID 743197); format: functional; conditions: OVCAR-8
[7] = target: Sphingosine 1-phosphate receptor 2 (Homo sapiens, UniProt O95136); experiment: Dose Response Cell Based Assay for Agonists of the S1P2 Receptor. [Related pubchem assays: 729, 736, 843 ]; format: functional
Sphingosine 1-phosphate receptor 2, sequence (O95136 whole entry): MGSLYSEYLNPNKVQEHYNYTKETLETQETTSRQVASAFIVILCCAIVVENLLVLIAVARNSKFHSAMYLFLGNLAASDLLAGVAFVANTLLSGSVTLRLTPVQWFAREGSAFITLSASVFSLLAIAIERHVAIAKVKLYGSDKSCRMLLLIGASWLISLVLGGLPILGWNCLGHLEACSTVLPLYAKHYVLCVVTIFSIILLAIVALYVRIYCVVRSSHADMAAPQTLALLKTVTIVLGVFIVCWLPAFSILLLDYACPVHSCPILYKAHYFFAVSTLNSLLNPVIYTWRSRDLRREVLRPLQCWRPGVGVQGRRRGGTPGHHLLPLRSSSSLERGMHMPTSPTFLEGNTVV

[8] = HEK293 cell cytotoxicity, dose response, cytotoxicity control, luminescence, dry powder, set 12 (AID 743354); format: functional, cell-based
Cytochrome P450 1A2 = target: T1, Cytochrome P450 1A2 (Homo sapiens, UniProt P05177);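 note: PubChem cytochrome P450 panel assay, CYP1A2 panel member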
T1 sequence (P05177 whole entry): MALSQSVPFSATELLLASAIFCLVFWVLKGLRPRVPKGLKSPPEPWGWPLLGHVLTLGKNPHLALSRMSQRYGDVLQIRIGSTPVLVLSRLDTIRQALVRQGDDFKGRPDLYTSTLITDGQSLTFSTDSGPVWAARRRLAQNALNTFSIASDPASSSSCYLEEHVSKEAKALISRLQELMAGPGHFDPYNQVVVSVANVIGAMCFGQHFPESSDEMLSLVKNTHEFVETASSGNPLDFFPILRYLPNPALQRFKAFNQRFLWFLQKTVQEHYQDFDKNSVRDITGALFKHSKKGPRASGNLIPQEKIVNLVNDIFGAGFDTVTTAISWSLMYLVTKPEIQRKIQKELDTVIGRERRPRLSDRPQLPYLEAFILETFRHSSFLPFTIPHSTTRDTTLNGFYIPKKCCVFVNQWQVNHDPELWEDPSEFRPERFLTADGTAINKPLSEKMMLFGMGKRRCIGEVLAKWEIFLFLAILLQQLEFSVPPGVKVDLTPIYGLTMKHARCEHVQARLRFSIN

Cytochrome P450 3A4 = Cytochrome P450 3A4 (Homo sapiens, UniProt P08684);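 note: CYP3A4 tested as one member of a cytochrome P450 panel screen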
Cytochrome P450 3A4, sequence (P08684 whole entry): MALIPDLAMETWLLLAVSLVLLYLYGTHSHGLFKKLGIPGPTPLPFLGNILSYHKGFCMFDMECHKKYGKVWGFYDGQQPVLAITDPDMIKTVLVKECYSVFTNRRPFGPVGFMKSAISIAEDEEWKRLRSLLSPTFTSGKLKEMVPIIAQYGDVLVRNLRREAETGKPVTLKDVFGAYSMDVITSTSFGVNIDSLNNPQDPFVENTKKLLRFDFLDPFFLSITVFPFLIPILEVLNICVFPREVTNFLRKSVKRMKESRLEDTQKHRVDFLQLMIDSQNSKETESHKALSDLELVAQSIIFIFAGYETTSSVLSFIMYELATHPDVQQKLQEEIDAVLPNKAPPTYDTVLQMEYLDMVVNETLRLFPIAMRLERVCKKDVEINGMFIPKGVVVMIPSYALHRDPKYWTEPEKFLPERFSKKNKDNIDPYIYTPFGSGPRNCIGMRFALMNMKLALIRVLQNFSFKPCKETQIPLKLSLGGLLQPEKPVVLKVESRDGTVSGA

[9] = Dose-response inhibition of insulin secretion in a rat insulinoma line at 5 mM glucose (AID 1117331); format: functional, cell-based; conditions: INS-1E
[10] = Glucagon-like peptide 1 release potency, NCI-H716 cell line, dose-response, half-maximal inhibitory concentration (AID 1117344); format: functional, cell-based
[11] = Concentration-dependent survival of SW480 colon cancer line, luminescence detection with CellTiter-Glo, half-maximal inhibitory concentration (AID 1117338); format: functional
[12] = HeLa 4N DNA content increase, dose response, cell-based, IC50 (AID 1117351); format: functional
[13] = CellTiter-Glo luminescent dose response of DLD-1 viability loss (AID 1117352); format: functional
[14] = target: Eukaryotic translation initiation factor 4E (Mus musculus, UniProt P63073); experiment: eIF4E–eIF4G protein interaction inhibitors, dose response, biochemical, TR-FRET (AID 855); format: functional;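 note: potency for disrupting eIF4E binding to eIF4GI seen as loss of FRET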
Eukaryotic translation initiation factor 4E, sequence (P63073 whole entry): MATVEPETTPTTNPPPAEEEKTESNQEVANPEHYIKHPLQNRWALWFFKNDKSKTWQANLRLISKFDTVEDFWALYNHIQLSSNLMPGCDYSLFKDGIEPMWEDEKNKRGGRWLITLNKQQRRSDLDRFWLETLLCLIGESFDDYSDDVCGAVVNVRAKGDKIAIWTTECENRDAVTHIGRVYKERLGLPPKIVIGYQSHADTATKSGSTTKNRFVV

[15] = cytotoxicity toward Colo320 cells – cell-based, CellTiter-Glo luminescence, IC50, dose response (AID 1117334); format: functional; conditions: COLO 320
[16] = HeLa 2N DNA content increase, dose response, cell-based, IC50 (AID 1117349); format: functional
Cytochrome P450 2C9 = Cytochrome P450 2C9 (Homo sapiens, UniProt P11712)
Cytochrome P450 2C9, sequence (P11712 whole entry): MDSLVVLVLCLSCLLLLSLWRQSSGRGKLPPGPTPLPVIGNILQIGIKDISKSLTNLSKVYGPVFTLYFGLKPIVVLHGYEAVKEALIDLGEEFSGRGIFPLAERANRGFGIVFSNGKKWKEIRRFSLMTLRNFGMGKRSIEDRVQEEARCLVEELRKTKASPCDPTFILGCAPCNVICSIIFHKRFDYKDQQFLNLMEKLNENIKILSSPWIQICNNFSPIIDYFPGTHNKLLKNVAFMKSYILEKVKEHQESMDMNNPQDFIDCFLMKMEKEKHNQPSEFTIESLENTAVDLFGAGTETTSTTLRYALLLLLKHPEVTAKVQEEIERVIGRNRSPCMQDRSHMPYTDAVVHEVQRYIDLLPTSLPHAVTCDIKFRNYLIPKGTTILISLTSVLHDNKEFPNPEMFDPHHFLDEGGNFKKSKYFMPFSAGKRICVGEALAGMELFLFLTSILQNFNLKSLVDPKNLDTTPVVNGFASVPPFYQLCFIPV

[17] = SNU-C1 cell viability reduction, dose response, CellTiter-Glo luminescence (AID 1117323); format: functional, cell-based
[18] = cytotoxicity toward HCT116 cells – cell-based, CellTiter-Glo luminescence, IC50, dose response (AID 1117332); format: functional; conditions: HCT-116
[19] = RKO cell viability reduction, dose response, CellTiter-Glo luminescence (AID 1117322); format: functional
[20] = target: Induced myeloid leukemia cell differentiation protein Mcl-1 (Homo sapiens, UniProt Q07820); experiment: Mcl-1/Noxa binding inhibitor potency, dose response, biochemical, TR-FRET (AID 1417); format: functional
Induced myeloid leukemia cell differentiation protein Mcl-1, sequence (Q07820 whole entry): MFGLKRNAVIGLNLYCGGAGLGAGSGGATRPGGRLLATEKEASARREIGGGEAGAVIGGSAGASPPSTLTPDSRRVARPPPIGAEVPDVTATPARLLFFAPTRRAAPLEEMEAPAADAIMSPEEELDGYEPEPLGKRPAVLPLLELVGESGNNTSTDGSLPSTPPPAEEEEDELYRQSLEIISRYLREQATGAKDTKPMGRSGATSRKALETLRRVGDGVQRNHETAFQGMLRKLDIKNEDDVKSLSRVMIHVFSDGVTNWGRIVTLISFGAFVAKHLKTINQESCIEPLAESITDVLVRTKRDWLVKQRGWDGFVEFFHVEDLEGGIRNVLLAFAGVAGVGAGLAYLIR

[21] = cytotoxicity toward HT-29 cells – cell-based, CellTiter-Glo luminescence, IC50, dose response (AID 1117330); format: functional
[22] = half-maximal inhibitory concentration for glucagon-like peptide-1 release, STC-1 cell line, dose-response (AID 1117345); format: functional, cell-based
Vero = experiment: cytotoxicity of synthesized analogs in Vero cells, SAR follow-up, cytotoxicity control for West Nile virus antiviral project, cell-based, set II (AID 2402); format: functional; conditions: Chlorocebus sabaeus

With `C[C@H](O)C#Cc1ccc2c(c1)O[C@@H](CN(C)Cc1ccc(-c3ccccc3)cc1)[C@@H](C)CN([C@@H](C)CO)S2(=O)=O` the AC50 [1] was 11.2 µM (active), the AC50 [2] was < 0.195 µM (active) and the AC50 [3] was 22.6 µM (active). The AC50 [4] was > 60 µM (inactive), the AC50 (Paired box protein Pax-8) was 11.5 µM (active) and the AC50 [5] was 14.7 µM (active). For the same molecule, the AC50 [6] was > 70 µM (inactive).

In the case of `COCCNC(=O)CN1CCN(C(c2ccccc2)c2ccccc2)CC1`, the EC50 [7] is reported as > 50 µM (not active).

In the case of `CC(=O)c1ccc(N2CCN(C(=O)c3ccccc3F)CC2)cc1`, the AC50 [8] is reported as > 52 µM (inactive).

With `O=C(CCCN1CCC(O)(c2ccc(Br)cc2)CC1)c1ccc(F)cc1` [BROMPERIDOL] the AC50 (Cytochrome P450 1A2) was 5.01 µM (inconclusive), the AC50 (Cytochrome P450 3A4) was “inconclusive” and the IC50 [9] was > 33.3 µM (inactive).

For `Cc1cc2c(C(C)C)c(O)c(O)c(C=O)c2c(O)c1-c1c(C)cc2c(C(C)C)c(O)c(O)c(C=O)c2c1O` [GOSSYPOL], the AC50 (Cytochrome P450 1A2) was 15.8 µM (inconclusive) and 39.8 µM (inconclusive), the IC50 [10] was 23.4 µM (inactive) and the IC50 [11] was 0.956 µM (active). For the same molecule, the IC50 [12] was > 10 µM (inactive), the IC50 [13] was 0.834 µM (active) and the IC50 [14] was > 64 µM (inactive). The IC50 [15] was 1.38 µM (active), the IC50 [16] was > 10 µM (inactive) and the AC50 (Cytochrome P450 2C9) was 31.6 µM (inconclusive) and 15.8 µM (inconclusive). The IC50 [17] was 0.354 µM (active), the IC50 [18] was 0.784 µM (active) and the IC50 [19] was 0.916 µM (active). For the same molecule, the IC50 [20] was 1.52 µM (active), the IC50 [21] was 1.42 µM (active) and the IC50 [22] was > 40 µM (inactive).

For `O=C(CSc1nc2cccc(F)c2c(=O)n1-c1ccccc1)Nc1ccc2c(c1)CCC2`, the CC50 (Vero) was > 200 µM (active).

Reference: ChEMBL document CHEMBL1201862, “PubChem BioAssay data set” (2004)
